Measured values from ChEMBL document CHEMBL5042524, “Discovery of Novel Histone Deacetylase 6 (HDAC6) Inhibitors with Enhanced Antitumor Immunity of Anti-PD-L1 Immunotherapy in Melanoma” (J Med Chem, 2022).
Values after ≈ are worked out from the molar mass of the structure shown.

Key:
[1] = Toxicity in C57BL/6 mouse allografted with B16-F10 cells assessed as body weight loss at 50 mg/kg, ip administered daily for 14 days; assay type: organism-based; settings: in vivo, 336 h, time 14 day
[2] = target: Histone deacetylase 3 (Homo sapiens, UniProt O15379); test: Inhibition of recombinant human His-tagged HDAC3 expressed in baculovirus insect cells using Ac-Leu-Gly-Lys (Ac)-AMC as substrate preincubated for 5 mins followed by substrate addition and measured after 30 mins by fluorescence microtiter plate reader assay
[3] = test system: B16-F10; test: cells; assay type: functional, cell-based; settings: Mus musculus, B16-F10, 48 h
Description: Antiproliferative activity against mouse B16-F10 cells assessed as inhibition of cell proliferation measured after 48 hrs by MTT assay

[4] = test system: B16-F10; test: Antitumor activity against mouse B16-F10 cells allografted in C57BL/6 mouse assessed as tumor growth inhibition at 50 mg/kg, ip administered daily for 14 days by caliper method (Rvb= 63%); assay type: functional; settings: 336 h, time 14 day, read-out: TGI
[5] = test system: HCT-116; test: cells; assay type: functional, cell-based; settings: Homo sapiens, HCT-116, 48 h
Description: Antiproliferative activity against human HCT-116 cells assessed as inhibition of cell proliferation measured after 48 hrs by MTT assay

[6] = target: T1, Histone deacetylase 8 (Homo sapiens, UniProt Q9BY41); test: Inhibition of full length recombinant human C-terminal His tagged HDAC8 expressed in baculovirus infected Sf9 insect cells using Ac-Leu-GlyLys (Tfa)-AMC as substrate preincubated for 5 mins followed by substrate addition and measured after 30 mins by fluorescence microtiter plate reader assay
T1 sequence (Q9BY41 whole entry): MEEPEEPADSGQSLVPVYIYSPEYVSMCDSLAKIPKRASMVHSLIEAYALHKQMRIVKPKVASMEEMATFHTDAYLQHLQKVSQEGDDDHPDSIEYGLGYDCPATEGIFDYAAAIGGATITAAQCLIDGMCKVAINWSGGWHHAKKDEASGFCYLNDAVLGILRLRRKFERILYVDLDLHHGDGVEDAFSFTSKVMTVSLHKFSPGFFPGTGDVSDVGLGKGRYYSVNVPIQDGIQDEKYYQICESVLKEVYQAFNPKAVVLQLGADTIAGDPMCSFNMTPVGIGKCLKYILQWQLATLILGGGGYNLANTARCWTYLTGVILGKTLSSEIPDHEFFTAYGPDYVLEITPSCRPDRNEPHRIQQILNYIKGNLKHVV

[7] = Aqueous solubility of the compound incubated for 24 hrs by HPLC based shake-flask method; assay type: physicochemical; settings: buffer
[8] = test system: B16-F10; test: Antitumour activity against mouse B16-F10 cells allografted in C57BL/6 mouse model assessed as increase in acetylated alpha tubulin expression level in tumor at 50 mg/kg, ip measured after 14 days by […] based microscopic analysis (Rvb =1.77%); assay type: functional; settings: time 14 day
[9] = Antiproliferative activity against human YCC-11 cells assessed as cell growth inhibition; assay type: functional, cell-based
[10] = test system: A549; test: cells; assay type: functional, cell-based; settings: Homo sapiens, A549, 48 h
Description: Antiproliferative activity against human A549 cells assessed as inhibition of cell proliferation measured after 48 hrs by MTT assay

[11] = Antiproliferative activity against human YCC3/7 cells assessed as cell growth inhibition; assay type: functional, cell-based
[12] = Cytotoxicity against human Jurkat cells assessed as reduction in cell viability incubated for 72 hrs by CCK-8 assay
[13] = target: Histone deacetylase 1 (Homo sapiens, UniProt Q13547); test: Inhibition of recombinant human HDAC1 expressed in baculovirus expression system using Ac-Leu-Gly-Lys (Ac)-AMC as substrate preincubated for 5 mins followed by substrate addition and measured after 30 mins by fluorescence microtiter plate reader assay
[14] = test system: MCF7; test: cells; assay type: functional, cell-based; settings: Homo sapiens, MCF7, 48 h
Description: Antiproliferative activity against human MCF7 cells assessed as inhibition of cell proliferation measured after 48 hrs by MTT assay

[15] = target: T2, Protein deacetylase HDAC6 (Homo sapiens, UniProt Q9UBN7); test: Inhibition of recombinant human N-terminal GST tagged HDAC6 expressed in baculovirus infected Sf9 insect cells using Ac-Leu-Gly-Lys (Ac)-AMC as substrate preincubated for 5 mins followed by substrate addition and measured after 30 mins by fluorescence microtiter plate reader assay
T2 sequence (Q9UBN7 whole entry): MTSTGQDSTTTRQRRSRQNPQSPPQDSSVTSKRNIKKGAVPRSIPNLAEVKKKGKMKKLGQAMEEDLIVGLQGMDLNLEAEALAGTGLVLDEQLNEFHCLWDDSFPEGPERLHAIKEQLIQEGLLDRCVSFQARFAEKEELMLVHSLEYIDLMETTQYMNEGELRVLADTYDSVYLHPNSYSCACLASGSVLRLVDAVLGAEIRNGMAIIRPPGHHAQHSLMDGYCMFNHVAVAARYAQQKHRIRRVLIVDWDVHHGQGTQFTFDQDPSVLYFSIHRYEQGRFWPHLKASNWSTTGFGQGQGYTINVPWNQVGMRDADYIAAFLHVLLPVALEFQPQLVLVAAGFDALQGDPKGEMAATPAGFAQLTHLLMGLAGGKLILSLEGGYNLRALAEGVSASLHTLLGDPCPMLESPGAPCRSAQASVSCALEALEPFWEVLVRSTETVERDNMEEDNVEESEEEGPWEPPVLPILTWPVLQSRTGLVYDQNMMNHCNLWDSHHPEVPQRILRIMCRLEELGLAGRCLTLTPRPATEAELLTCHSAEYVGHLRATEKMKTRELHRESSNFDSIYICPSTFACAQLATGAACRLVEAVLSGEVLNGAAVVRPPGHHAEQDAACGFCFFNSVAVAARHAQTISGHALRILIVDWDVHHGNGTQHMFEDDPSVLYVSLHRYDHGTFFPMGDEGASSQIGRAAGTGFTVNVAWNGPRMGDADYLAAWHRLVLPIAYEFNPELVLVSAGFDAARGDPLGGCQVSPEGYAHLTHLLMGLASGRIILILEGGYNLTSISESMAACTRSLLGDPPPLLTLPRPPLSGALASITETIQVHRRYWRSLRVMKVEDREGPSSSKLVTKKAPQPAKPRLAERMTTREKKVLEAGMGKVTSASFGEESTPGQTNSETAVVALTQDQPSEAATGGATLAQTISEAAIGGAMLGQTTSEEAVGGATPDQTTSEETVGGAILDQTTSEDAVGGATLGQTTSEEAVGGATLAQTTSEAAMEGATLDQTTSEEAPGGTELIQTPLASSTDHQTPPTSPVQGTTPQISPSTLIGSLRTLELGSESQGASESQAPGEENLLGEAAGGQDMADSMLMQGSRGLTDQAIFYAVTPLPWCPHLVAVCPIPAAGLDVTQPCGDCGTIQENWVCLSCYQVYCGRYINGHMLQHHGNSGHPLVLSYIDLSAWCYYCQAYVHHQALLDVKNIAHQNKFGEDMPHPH

[16] = target: Histone deacetylase; test: Inhibition of HDAC in human HeLa nuclear extracts using fluorometric substrate incubated for 30 mins by fluorescence plate reader analysis; assay type: cell-based
[17] = test system: B16-F10; test: Antitumour activity against mouse B16-F10 cells allografted in C57BL/6 mouse model assessed as increase in CD3 positive/CD8 positive cells in tumor at 10 mg/kg, ip administered for 14 days by flow cytometry analysis (Rvb= 6.65%); assay type: functional; settings: time 14 day
[18] = test system: B16-F10; test: Antitumour activity against mouse B16-F10 cells allografted in C57BL/6 mouse model assessed as increase in CD3 positive/CD4 positive cells in tumor at 10 mg/kg, ip administered for 14 days by flow cytometry analysis (Rvb= 8.73%); assay type: functional; settings: time 14 day
[19] = Toxicity in C57BL/6 mouse allografted with B16-F10 cells assessed as body weight loss at 10 mg/kg, ip administered daily for 14 days; assay type: organism-based; settings: in vivo, 336 h, time 14 day
[20] = test system: B16-F10; test: Potentiation of antitumor activity against mouse B16-F10 cells allografted in C57BL/6 mouse model assessed as decrease in PD-L1 expression level in presence of 2-(5-chloro-2-(3-cyanobenzyloxy)-4-((2-methylbiphenyl-3-yl)methoxy)benzylamino)-2-methylpropanoic acid by Western blot analysis relative to control; assay type: functional; design: scale not given: the % may be the effect or the level left
[21] = test system: B16-F10; test: Antitumour activity against mouse B16-F10 cells allografted in C57BL/6 mouse model assessed as decrease in PD-L1 expression level by Western blot analysis relative to control; assay type: functional; design: scale not given: the % may be the effect or the level left

Chain of Histone deacetylase 1 (Q13547 whole entry): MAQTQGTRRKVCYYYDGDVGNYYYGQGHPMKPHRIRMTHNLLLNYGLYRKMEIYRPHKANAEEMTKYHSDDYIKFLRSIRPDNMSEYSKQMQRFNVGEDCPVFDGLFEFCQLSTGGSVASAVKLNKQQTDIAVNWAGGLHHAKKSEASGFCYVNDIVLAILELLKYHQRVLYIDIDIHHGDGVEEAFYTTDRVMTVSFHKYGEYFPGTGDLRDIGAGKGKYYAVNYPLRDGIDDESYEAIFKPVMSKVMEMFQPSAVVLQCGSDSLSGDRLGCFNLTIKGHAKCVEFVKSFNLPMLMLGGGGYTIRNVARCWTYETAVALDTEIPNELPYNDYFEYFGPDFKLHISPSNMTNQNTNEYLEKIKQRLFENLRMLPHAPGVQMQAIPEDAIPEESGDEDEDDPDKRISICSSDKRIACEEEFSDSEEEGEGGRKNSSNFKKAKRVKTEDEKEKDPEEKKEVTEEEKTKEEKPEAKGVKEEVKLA
Chain of Histone deacetylase 3 (O15379 whole entry): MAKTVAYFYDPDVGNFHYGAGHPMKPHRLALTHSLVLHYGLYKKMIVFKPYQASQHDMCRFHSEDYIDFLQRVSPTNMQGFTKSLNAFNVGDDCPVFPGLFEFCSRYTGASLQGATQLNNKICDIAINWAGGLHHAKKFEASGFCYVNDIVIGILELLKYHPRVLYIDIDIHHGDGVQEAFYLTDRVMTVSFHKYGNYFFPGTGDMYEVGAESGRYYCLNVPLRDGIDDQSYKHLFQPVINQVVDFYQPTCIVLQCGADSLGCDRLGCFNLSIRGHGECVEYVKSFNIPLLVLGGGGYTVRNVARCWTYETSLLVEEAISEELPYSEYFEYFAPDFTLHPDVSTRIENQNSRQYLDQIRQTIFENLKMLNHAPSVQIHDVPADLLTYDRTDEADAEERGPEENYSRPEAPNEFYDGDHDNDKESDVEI

| Structure (SMILES) | IC50 [2] | IC50 [3] | IC50 [5] | IC50 [6] | IC50 [10] | IC50 [13] | IC50 [14] | IC50 [15] | IC50 [16] | IC50 [9] | IC50 [11] | IC50 at 72 h [12] | also measured |
| --- | --- | --- | --- | --- | --- | --- | --- | --- | --- | --- | --- | --- | --- |
| CC(C)(C)OC(=O)Nc1ccc(-c2cc(C(=O)NCCCCCCC(=O)NO)no2)cc1 | 0.76 µM | 9.41 µM | 1.47 µM | 6.21 µM | > 10 µM | 0.26 µM | 2.82 µM | – | – | 4.08 µM | 6.25 µM | 0.61 µM | Activity [1]: Non-Toxic; inhibition in vivo at 50 mg/kg [4]: 52%; solubility thermodynamic at 24 h [7]: 0.0161 mg/mL (≈ 36 µM); Activity [8]: 37.9% |
| COc1ccc(-c2ncc(/C=C/C(=O)NO)s2)c(OC)c1OC | 6.23 µM | > 10 µM | 3.27 µM | 2.56 µM | > 10 µM | 5.03 µM | 4.78 µM | 1.09 µM | 0.11 µM | 3.77 µM | 8.17 µM | 0.59 µM | – |
| COc1ccc(-c2ncc(C(=O)NCCCCCC(=O)NO)s2)c(OC)c1 | 12.4 µM | 2.94 µM | 2.19 µM | 19.8 µM | 6.71 µM | 11.2 µM | 2.81 µM | 0.076 µM | 0.35 µM | 6.52 µM | 8.73 µM | 1.72 µM | – |
| CC(C)(C)OC(=O)Nc1ccc(-c2ncc(C(=O)NCCCCCCC(=O)NO)s2)cc1 | 5.88 µM | > 10 µM | 2.88 µM | 5.22 µM | > 10 µM | 9.32 µM | > 10 µM | 0.067 µM | 0.29 µM | 2.09 µM | 10.1 µM | 1.34 µM | – |
| Cc1c(COc2cc(OCc3cccc(C#N)c3)c(CNC(C)(C)C(=O)O)cc2Cl)cccc1-c1ccccc1 | – | – | – | – | – | – | – | – | – | – | – | – | Activity [17]: 11.2%; Activity [18]: 15.4%; Activity [19]: Non-Toxic; Activity [20]: 70%; Activity [21]: 45% |
| COc1ccccc1-c1ncc(C(=O)NCCCCCCC(=O)NO)s1 | 6.49 µM | > 10 µM | 0.91 µM | 10.2 µM | 5.04 µM | 5.13 µM | 1.93 µM | 0.65 µM | 0.27 µM | 2.69 µM | 6.68 µM | 0.35 µM | – |

Continued, in another order:

| IC50 [2] | IC50 [3] | IC50 [5] | IC50 [6] | IC50 [10] | IC50 [13] | IC50 [14] | IC50 [15] | IC50 [16] | Structure (SMILES) | IC50 [9] | IC50 [11] | IC50 at 72 h [12] | also measured |
| --- | --- | --- | --- | --- | --- | --- | --- | --- | --- | --- | --- | --- | --- |
| 4.87 µM | > 10 µM | 3.91 µM | 13.4 µM | 7.64 µM | 13.5 µM | 6.05 µM | 9.53 µM | 0.58 µM | COc1cccc(-c2ncc(/C=C/C(=O)Nc3ccccc3N)s2)c1 | 8.56 µM | 9.91 µM | 0.56 µM | – |
| 5.11 µM | > 10 µM | 4.12 µM | 3.74 µM | > 10 µM | 4.34 µM | 5.36 µM | 0.91 µM | 0.13 µM | COc1ccc(-c2ncc(/C=C/C(=O)NO)s2)cc1 | 3.07 µM | 4.21 µM | 0.74 µM | – |
| 7.66 µM | 5.09 µM | 1.82 µM | 2.22 µM | 3.08 µM | 3.21 µM | 1.3 µM | 2.1 µM | 0.1 µM | COc1cc(-c2ncc(/C=C/C(=O)NO)s2)cc(OC)c1OC | 4.8 µM | 5.18 µM | 0.36 µM | – |
| 2.22 µM | 6.37 µM | 1.8 µM | 11.5 µM | 5.24 µM | 10.4 µM | 3.05 µM | 8.81 µM | 0.53 µM | COc1ccc(-c2ncc(/C=C/C(=O)Nc3ccccc3N)s2)cc1OC | 4.59 µM | 6.28 µM | 0.34 µM | – |
| 2.98 µM | 7.62 µM | 1.65 µM | 14.2 µM | > 10 µM | 9.79 µM | 2.54 µM | 9.33 µM | 0.08 µM | COc1cc(-c2ncc(/C=C/C(=O)Nc3ccccc3N)s2)cc(OC)c1OC | 1.65 µM | 3.03 µM | 0.58 µM | – |
| 9.27 µM | 3.52 µM | 0.93 µM | 15.2 µM | 6.03 µM | 3.93 µM | 1.9 µM | 0.59 µM | 0.44 µM | COc1cccc(-c2ncc(C(=O)NCCCCCCC(=O)NO)s2)c1 | 1.3 µM | 1.56 µM | 0.33 µM | – |
